# Experiments:
# [1] = tested on: Sprague-Dawley rats; experiment: PPAR-γ agonist (pioglitazone)-mediated fluid retention / plasma expansion model, 7 days, drugs in drinking water; assay type: in vivo, rat
# Text: It has been recognized in human clinical practice that an undesirable side effect of PPAR-γ agonists of the thiazolidinedione class is fluid retention and edema, which limits their use in patients with congestive heart failure. The mechanism of action of the thiazolidinediones is believed to be through stimulation of expression of the epithelial sodium channel (ENaC) in the kidney, resulting in an increased uptake of sodium ions from the distal tubule. Sodium retention and the associated expansion of extracellular fluid volume are characteristic features of congestive heart failure in multiple species. […] The sodium channel blocker amiloride was delivered in drinking water to a third group of rats as a comparator. Plasma expansion was measured by hematocrit. […] Food weight was recorded to measure consumption over the course of the experiment. […] Full bottles were pre-weighed and the weights recorded to allow consumption to be measured over the course of the experiment. On days 1 and 7, rats were warmed using a heating pad and lightly anesthetized using isoflurane. Using a sterile scalpel blade, a small tail nick was made on the distal one third of the tail. Blood was collected in a heparinized microcapillary tube sealed with putty at one end and stored on ice until centrifugation (5000 rpm, 5 min). Plasma volume was determined using a microhematocrit capillary tube reader card. On day 7, rats, food and water bottles were again weighed and recorded and hematocrits were determined using blood collected by a tail nick.
# [2] = biological target: T1, human SGLT2 (Homo sapiens, UniProt P31639); experiment: Inhibition of human SGLT2
# T1 sequence (P31639 1-672): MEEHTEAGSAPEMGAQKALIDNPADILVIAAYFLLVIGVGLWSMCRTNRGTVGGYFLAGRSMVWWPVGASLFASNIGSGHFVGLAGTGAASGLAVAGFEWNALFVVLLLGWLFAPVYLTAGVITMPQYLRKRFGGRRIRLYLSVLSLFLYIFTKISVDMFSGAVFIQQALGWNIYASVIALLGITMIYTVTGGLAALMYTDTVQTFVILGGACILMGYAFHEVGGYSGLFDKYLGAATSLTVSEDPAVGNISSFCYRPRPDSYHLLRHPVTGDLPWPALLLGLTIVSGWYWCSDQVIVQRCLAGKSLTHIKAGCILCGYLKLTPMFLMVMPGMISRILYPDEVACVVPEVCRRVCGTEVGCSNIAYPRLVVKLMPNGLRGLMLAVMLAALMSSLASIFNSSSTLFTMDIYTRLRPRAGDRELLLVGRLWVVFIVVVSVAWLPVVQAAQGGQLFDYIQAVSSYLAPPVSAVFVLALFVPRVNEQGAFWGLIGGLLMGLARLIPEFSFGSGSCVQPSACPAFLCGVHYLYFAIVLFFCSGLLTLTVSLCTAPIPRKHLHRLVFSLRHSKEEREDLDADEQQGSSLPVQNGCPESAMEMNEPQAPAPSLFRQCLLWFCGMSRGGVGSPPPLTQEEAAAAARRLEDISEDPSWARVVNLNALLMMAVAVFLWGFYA
# [3] = tested on: feline SGLT1; experiment: Inhibition of feline SGLT1
# [4] = tested on: purpose-bred beagles; experiment: Serum glucose after single oral dose and glucose challenge 1 h post-dose in dogs; assay type: in vivo, dog; settings: mean ± SD; for Serum Glucose Concentration, 15 min / Serum Glucose Concentration, 30 min / Serum Glucose Concentration, 60 min / Serum Glucose Concentration, 120 min: after glucose challenge; for Serum Glucose Concentration, −60 min: before dosing; for Serum Glucose Concentration, 0 min: before glucose challenge (1 h post-dose)
# Protocol: Groups of four purpose-bred beagles per cohort were administered ascending doses of bexagliflozin in the form of a proline co-crystal consisting of two moles of L-proline for every mole of bexagliflozin. The co-crystal was dissolved in 10% PEG400 and administered by oral gavage to dogs that had been fasted overnight. Control dogs were administered 10% PEG400. One hour after dosing, glucose solution (2 g kg^−1, 5 ml kg^−1) was administered by gavage. Serum glucose concentrations were quantitated by an automated clinical chemistry analyzer for samples collected before dosing, before glucose challenge, and 15, 30, 60, and 120 min after glucose challenge. Urine was collected from 0 to 4 h, 4 to 8 h and 8 to 24 h after dosing for electrolyte analyses (Na^+, K^+, Cl^− and Ca^2+) and glucose measurement. Whole blood samples of approximately 500 μL were collected from the cephalic vein 0, 0.25, 0.5, 1, 2, 4, 8, 12 and 24 h after dosing for pharmacokinetic analysis.
# [5] = rats, day 1 to day 7, mean ± SEM
# [6] = rats, pioglitazone diet, mean ± SEM
# [7] = rats, relative to day 1, mean ± SEM
structure (smiles),measurement,setting,value
"OC[C@H]1O[C@@H](c2ccc(Cl)c(Cc3ccc(OCCOC4CC4)cc3)c2)[C@H](O)[C@@H](O)[C@@H]1O [Bexagliflozin, (2S,3R,4R,5 S,6R)-2-(4-chloro-3-(4-(2-cyclopropoxyethoxy)benzyl)phenyl)-6-(hydroxymethyl)tetrahydro-2H-pyran-3,4,5-triol]","Plasma volume, Day 7","[1]; rats after 7 days pioglitazone diet, group mean ± SEM",54.7 ± 0.6 % of blood volume
same,"Plasma volume, Day 1","[1]; rats on 0.03% pioglitazone diet, by hematocrit, group mean ± SEM",52.9 ± 0.5 % of blood volume
same,Effect on pioglitazone-mediated plasma expansion (conclusion),"[1]; rats, 7 days",substantially attenuates pioglitazone-mediated plasma expansion
same,"Body Weight (%), Δ (percent mass gain)",[1]; [5],4.8 ± 1.3 %
same,"Body Weight (g), Δ",[1]; [5],17.5 ± 4.7 g
same,"Body Weight (%), Δ (percent mass gain)","[1]; rats, day 1 to day 7, mean ± SEM, listed as bexagliflozin",4.8%
same,"Plasma volume, Δ (day 1 to day 7)","[1]; rats, pioglitazone diet, group mean ± SEM",1.8 ± 0.8 % of blood volume
same,"Body Weight (g), Day 1",[1]; [6],371.7 ± 5.0 ^ g
same,"Body Weight (g), Day 7",[1]; [6],389.2 ± 5.7 ^†† g
same,"Body Weight (%), Day 1",[1]; [7],100 ± 0 ^ %
same,"Body Weight (%), Day 7",[1]; [7],104.8 ± 1.3 ^†† %
same,inhibition of human SGLT2 (in words),[2],highly effective and specific inhibitor
same,potency for feline SGLT1 (in words),[3],high potency
same,"Serum Glucose Concentration, 15 min",[4]; 0.02 mg kg^−1 oral,122.13 ± 17.54 mg/dL
same,"Serum Glucose Concentration, 30 min",[4]; 0.02 mg kg^−1 oral,97.43 ± 6.87 mg/dL
same,"Serum Glucose Concentration, 60 min",[4]; 0.02 mg kg^−1 oral,93.29 ± 19.87 mg/dL
same,"Serum Glucose Concentration, 120 min",[4]; 0.02 mg kg^−1 oral,78.03 ± 10.98 mg/dL
same,"Serum Glucose Concentration, −60 min","[4]; 0.02 mg kg^−1 oral, time relative to glucose challenge",100.89 ± 3.49 mg/dL
same,"Serum Glucose Concentration, 0 min",[4]; 0.02 mg kg^−1 oral,95.94 ± 8.37 mg/dL
same,"Serum Glucose Concentration, 15 min",[4]; 0.067 mg kg^−1 oral,107.91 ± 12.08 mg/dL
same,"Serum Glucose Concentration, 30 min",[4]; 0.067 mg kg^−1 oral,104.31 ± 26.84 mg/dL
same,"Serum Glucose Concentration, 60 min",[4]; 0.067 mg kg^−1 oral,104.27 ± 17.85 mg/dL
same,"Serum Glucose Concentration, 120 min",[4]; 0.067 mg kg^−1 oral,79.65 ± 11.69 mg/dL
same,"Serum Glucose Concentration, −60 min",[4]; 0.067 mg kg^−1 oral,98.64 ± 7.63 mg/dL
same,"Serum Glucose Concentration, 0 min",[4]; 0.067 mg kg^−1 oral,91.58 ± 6.49 mg/dL
same,"Serum Glucose Concentration, 15 min",[4]; 0.20 mg kg^−1 oral,96.71 ± 7.21 mg/dL
same,"Serum Glucose Concentration, 30 min",[4]; 0.20 mg kg^−1 oral,105.48 ± 18.67 mg/dL
same,"Serum Glucose Concentration, 60 min",[4]; 0.20 mg kg^−1 oral,101.75 ± 14.83 mg/dL
same,"Serum Glucose Concentration, 120 min",[4]; 0.20 mg kg^−1 oral,76.10 ± 7.91 mg/dL
same,"Serum Glucose Concentration, −60 min",[4]; 0.20 mg kg^−1 oral,97.02 ± 7.61 mg/dL
same,"Serum Glucose Concentration, 0 min",[4]; 0.20 mg kg^−1 oral,84.65 ± 7.98 mg/dL
same,"Serum Glucose Concentration, 15 min",[4]; 0.67 mg kg^−1 oral,109.94 ± 17.55 mg/dL
same,"Serum Glucose Concentration, 30 min",[4]; 0.67 mg kg^−1 oral,109.04 ± 26.58 mg/dL
same,"Serum Glucose Concentration, 60 min",[4]; 0.67 mg kg^−1 oral,106.79 ± 11.98 mg/dL
same,"Serum Glucose Concentration, 120 min",[4]; 0.67 mg kg^−1 oral,76.95 ± 11.53 mg/dL
same,"Serum Glucose Concentration, −60 min",[4]; 0.67 mg kg^−1 oral,97.70 ± 5.27 mg/dL
same,"Serum Glucose Concentration, 0 min",[4]; 0.67 mg kg^−1 oral,87.08 ± 6.03 mg/dL
same,"Serum Glucose Concentration, 15 min",[4]; 2.0 mg kg^−1 oral,104.49 ± 9.60 mg/dL
same,"Serum Glucose Concentration, 30 min",[4]; 2.0 mg kg^−1 oral,112.86 ± 9.82 mg/dL
same,"Serum Glucose Concentration, 60 min",[4]; 2.0 mg kg^−1 oral,108.81 ± 6.77 mg/dL
same,"Serum Glucose Concentration, 120 min",[4]; 2.0 mg kg^−1 oral,71.06 ± 5.49 mg/dL
same,"Serum Glucose Concentration, −60 min",[4]; 2.0 mg kg^−1 oral,92.21 ± 7.11 mg/dL
same,"Serum Glucose Concentration, 0 min",[4]; 2.0 mg kg^−1 oral,85.10 ± 4.74 mg/dL

# From patent US20230000816A1, “SODIUM-GLUCOSE LINKED TRANSPORTER INHIBITORS FOR THE MANAGEMENT OF CHRONIC KIDNEY DISEASE, HYPERTENSION, AND HEART FAILURE IN COMPANION ANIMALS” (INCREVET, INC., priority 2019, published 2023)
